# Source: ChEMBL document CHEMBL4041516, “SAR study of 5-alkynyl substituted quinazolin-4(3H)-ones as phosphoinositide 3-kinase delta (PI3Kδ) inhibitors” (Eur J Med Chem, 2017)
# What was measured:
# SU-DHL-6 = assay: Antiproliferative activity against human SUDHL6 cells measured after 72 hrs by alamar blue assay; assay type: functional, cell-based; settings: SU-DHL-6, 72 h
# KARPAS-422 = assay: Antiproliferative activity against human KARPAS422 cells measured after 72 hrs by alamar blue assay; assay type: functional, cell-based; settings: KARPAS-422, 72 h
# [1] = Antiproliferative activity against human WSU-DLCL2 cells measured after 72 hrs by alamar blue assay; assay type: functional, cell-based; settings: WSUDLCL2, 72 h
# HT = assay: Antiproliferative activity against human HT cells measured after 72 hrs by alamar blue assay; assay type: functional, cell-based
# Pfeiffer = assay: Antiproliferative activity against human Pfeiffer cells measured after 72 hrs by alamar blue assay; assay type: functional, cell-based
# NAMALVA = assay: Antiproliferative activity against human NAMALWA cells measured after 72 hrs by alamar blue assay; assay type: functional, cell-based
# SU-DHL-1 = assay: Antiproliferative activity against human SU-DHL1 cells measured after 72 hrs by alamar blue assay; assay type: functional, cell-based; settings: SU-DHL-1, 72 h
# SU-DHL10 = assay: Antiproliferative activity against human SU-DHL10 cells measured after 72 hrs by alamar blue assay; assay type: functional, cell-based; settings: SU-DHL10, 72 h
# MOLT-4 = assay: Antiproliferative activity against human MOLT4 cells measured after 72 hrs by alamar blue assay; assay type: functional, cell-based; settings: MOLT-4, 72 h
# [2] = target: T1, Phosphatidylinositol 4,5-bisphosphate 3-kinase catalytic subunit delta isoform (Homo sapiens, UniProt O00329); assay: Inhibition of PI3Kdelta (unknown origin) using PIP2 as substrate measured after 30 mins by HTRF assay
# T1 sequence (O00329 whole entry): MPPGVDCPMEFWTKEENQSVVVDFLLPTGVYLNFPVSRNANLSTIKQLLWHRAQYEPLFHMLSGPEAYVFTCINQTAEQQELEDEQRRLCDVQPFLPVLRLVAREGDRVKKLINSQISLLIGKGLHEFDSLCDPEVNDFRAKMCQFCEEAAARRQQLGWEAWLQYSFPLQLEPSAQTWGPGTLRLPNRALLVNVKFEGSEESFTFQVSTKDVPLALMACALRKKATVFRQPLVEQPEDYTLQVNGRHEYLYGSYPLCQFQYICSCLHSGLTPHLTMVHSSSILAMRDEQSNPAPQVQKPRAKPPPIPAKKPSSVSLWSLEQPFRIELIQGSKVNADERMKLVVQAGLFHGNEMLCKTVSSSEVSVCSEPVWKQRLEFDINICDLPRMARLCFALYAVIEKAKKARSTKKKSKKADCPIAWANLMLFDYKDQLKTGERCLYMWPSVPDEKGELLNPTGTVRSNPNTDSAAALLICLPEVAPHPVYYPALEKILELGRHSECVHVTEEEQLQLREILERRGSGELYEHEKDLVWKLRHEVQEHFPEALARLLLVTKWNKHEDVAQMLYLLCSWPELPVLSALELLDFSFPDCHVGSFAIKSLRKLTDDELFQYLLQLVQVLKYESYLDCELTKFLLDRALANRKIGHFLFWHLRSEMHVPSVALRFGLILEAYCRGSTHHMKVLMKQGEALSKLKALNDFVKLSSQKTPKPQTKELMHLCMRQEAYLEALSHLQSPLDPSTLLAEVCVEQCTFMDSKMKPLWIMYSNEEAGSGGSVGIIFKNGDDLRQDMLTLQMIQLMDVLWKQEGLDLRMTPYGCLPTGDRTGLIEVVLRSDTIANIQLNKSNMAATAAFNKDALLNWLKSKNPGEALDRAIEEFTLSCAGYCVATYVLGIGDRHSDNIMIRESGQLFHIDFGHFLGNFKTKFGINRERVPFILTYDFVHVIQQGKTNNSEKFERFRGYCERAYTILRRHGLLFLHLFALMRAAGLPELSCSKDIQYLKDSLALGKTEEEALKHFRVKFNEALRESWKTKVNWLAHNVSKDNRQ
# [3] = target: Phosphatidylinositol 4,5-bisphosphate 3-kinase catalytic subunit gamma isoform (Homo sapiens, UniProt P48736); assay: Inhibition of PI3Kgamma (unknown origin) using PIP2 as substrate measured after 30 mins by HTRF assay
# Phosphatidylinositol 4,5-bisphosphate 3-kinase catalytic subunit gamma isoform, sequence (P48736 whole entry, canonical isoform): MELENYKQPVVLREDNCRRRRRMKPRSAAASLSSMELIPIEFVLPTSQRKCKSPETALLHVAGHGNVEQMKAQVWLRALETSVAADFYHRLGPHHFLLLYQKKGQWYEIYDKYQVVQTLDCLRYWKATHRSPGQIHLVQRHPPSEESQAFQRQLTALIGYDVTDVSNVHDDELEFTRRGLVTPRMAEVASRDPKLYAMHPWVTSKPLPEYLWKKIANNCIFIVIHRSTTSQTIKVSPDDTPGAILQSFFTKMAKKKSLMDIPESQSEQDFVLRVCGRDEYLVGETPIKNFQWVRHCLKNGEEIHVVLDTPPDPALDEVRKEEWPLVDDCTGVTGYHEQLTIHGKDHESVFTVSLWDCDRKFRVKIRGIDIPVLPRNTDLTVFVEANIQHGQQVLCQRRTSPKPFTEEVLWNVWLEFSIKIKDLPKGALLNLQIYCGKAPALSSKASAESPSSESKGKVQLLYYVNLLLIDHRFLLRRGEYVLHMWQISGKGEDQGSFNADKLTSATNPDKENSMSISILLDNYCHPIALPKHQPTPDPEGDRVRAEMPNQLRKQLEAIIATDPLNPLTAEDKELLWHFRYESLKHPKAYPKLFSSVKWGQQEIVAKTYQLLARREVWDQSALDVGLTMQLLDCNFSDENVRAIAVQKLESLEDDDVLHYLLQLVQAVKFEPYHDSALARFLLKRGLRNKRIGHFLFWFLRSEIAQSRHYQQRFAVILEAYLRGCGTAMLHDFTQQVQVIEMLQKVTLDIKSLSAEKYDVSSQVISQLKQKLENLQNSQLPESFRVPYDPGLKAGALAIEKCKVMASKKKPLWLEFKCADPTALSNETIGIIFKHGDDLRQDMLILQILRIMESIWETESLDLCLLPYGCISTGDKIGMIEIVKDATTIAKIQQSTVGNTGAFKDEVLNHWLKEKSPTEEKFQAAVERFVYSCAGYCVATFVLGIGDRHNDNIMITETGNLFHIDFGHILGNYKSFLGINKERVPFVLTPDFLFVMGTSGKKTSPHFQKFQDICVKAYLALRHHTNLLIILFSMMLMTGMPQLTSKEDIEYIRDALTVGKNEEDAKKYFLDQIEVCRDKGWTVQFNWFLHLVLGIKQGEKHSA
# [4] = target: Phosphatidylinositol 4,5-bisphosphate 3-kinase catalytic subunit alpha isoform (Homo sapiens, UniProt P42336); assay: Inhibition of PI3Kalpha (unknown origin) using PIP2 as substrate measured after 30 mins by HTRF assay
# Phosphatidylinositol 4,5-bisphosphate 3-kinase catalytic subunit alpha isoform, sequence (P42336 whole entry, canonical isoform): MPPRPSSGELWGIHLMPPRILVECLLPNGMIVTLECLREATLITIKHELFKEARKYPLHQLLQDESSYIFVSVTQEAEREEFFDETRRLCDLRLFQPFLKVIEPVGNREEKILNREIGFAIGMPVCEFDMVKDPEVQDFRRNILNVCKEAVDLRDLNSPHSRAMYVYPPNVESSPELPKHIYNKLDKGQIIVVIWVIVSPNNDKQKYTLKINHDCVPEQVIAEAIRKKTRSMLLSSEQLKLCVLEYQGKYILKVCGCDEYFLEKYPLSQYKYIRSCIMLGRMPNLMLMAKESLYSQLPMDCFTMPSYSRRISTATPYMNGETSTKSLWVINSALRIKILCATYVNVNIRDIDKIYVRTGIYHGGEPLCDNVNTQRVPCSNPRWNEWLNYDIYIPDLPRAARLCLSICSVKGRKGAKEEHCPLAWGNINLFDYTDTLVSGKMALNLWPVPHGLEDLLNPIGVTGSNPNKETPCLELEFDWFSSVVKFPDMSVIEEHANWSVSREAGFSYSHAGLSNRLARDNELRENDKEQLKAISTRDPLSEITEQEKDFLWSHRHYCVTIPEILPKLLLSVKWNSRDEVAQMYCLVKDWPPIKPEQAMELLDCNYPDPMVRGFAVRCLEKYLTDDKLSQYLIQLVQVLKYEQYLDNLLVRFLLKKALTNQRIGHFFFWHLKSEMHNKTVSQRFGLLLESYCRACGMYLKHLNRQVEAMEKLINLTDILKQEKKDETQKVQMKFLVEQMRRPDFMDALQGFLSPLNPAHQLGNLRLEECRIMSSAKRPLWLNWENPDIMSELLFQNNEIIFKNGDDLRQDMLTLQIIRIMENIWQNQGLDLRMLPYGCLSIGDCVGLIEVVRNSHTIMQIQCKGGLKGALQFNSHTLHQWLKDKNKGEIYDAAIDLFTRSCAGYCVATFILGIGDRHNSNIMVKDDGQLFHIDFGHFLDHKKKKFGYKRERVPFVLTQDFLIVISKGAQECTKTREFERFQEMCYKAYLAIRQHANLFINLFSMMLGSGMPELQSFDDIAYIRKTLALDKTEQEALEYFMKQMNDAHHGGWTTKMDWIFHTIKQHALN
# [5] = target: Phosphatidylinositol 4,5-bisphosphate 3-kinase catalytic subunit beta isoform (Homo sapiens, UniProt P42338); assay: Inhibition of PI3Kbeta (unknown origin) using PIP2 as substrate measured after 30 mins by HTRF assay
# Phosphatidylinositol 4,5-bisphosphate 3-kinase catalytic subunit beta isoform, sequence (P42338 whole entry, canonical isoform): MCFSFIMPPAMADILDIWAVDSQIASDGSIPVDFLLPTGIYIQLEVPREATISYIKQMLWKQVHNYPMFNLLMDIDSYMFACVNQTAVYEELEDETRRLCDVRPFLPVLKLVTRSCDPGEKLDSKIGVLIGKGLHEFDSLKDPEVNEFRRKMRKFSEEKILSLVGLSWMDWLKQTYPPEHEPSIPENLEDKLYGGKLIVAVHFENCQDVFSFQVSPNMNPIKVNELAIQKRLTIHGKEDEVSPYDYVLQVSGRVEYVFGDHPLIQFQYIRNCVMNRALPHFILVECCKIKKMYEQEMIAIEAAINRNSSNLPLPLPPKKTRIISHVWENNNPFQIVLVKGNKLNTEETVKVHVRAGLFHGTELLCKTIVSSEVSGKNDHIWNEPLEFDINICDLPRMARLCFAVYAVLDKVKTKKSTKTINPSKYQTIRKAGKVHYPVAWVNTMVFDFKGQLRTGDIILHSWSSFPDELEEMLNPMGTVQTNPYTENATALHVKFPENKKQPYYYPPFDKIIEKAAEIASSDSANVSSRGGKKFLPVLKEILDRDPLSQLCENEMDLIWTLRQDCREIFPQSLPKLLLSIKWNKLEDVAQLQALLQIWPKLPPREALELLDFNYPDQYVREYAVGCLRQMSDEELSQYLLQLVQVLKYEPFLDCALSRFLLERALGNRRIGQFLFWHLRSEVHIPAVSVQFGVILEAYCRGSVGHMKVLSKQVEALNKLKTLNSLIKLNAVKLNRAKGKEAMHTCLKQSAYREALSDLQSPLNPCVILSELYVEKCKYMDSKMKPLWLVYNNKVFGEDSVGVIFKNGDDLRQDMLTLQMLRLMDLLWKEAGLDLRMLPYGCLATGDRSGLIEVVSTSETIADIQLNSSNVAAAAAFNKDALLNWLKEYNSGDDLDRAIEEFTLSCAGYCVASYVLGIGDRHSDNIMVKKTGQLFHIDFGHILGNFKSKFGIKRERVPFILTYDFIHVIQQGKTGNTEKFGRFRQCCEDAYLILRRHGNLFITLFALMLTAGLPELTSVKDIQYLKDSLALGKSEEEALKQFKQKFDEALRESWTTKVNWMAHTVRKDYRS
# SUD4 = assay: Antiproliferative activity against human SU-DHL4 cells measured after 72 hrs by alamar blue assay; assay type: functional, cell-based; settings: SU-DHL-4, 72 h
# [6] = target: T2, Voltage-gated inwardly rectifying potassium channel KCNH2 (Homo sapiens, UniProt Q12809); assay: Inhibition of human ERG
# T2 sequence (Q12809 whole entry): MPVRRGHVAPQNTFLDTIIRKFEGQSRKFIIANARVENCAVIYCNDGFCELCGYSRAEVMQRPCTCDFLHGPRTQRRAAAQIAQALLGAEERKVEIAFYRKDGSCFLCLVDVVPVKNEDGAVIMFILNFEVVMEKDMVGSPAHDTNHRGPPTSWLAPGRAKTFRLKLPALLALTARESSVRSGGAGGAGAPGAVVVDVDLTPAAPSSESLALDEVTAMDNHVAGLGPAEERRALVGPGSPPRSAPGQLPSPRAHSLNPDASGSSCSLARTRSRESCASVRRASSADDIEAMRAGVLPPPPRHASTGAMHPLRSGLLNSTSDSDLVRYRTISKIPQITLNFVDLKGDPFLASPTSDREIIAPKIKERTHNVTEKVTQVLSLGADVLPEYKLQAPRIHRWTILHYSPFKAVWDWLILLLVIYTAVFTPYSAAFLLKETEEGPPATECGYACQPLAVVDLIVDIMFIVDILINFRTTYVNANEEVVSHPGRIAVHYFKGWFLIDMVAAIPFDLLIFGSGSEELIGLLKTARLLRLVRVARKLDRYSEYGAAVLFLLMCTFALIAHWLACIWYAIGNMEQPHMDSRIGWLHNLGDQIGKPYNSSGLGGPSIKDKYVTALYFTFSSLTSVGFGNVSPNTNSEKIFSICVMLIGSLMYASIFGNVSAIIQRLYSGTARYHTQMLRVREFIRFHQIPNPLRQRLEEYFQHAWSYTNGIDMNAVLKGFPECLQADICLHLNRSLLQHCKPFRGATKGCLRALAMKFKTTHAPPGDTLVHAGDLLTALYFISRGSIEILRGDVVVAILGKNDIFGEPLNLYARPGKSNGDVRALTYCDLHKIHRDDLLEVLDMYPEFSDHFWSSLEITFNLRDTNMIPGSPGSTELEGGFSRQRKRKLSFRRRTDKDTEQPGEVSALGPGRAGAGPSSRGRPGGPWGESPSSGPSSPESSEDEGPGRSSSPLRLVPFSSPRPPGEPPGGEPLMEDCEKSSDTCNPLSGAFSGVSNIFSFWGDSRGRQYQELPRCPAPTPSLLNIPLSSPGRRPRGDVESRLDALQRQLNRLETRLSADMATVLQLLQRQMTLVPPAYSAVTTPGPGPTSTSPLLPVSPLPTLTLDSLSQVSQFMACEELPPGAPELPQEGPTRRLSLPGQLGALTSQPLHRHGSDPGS
# hERG (KCNH2) = hERG (KCNH2) (Homo sapiens, UniProt Q12809); assay: (§1) Inhibition of human ERG at 40 uM relative to control
# [7] = target: T2, Voltage-gated inwardly rectifying potassium channel KCNH2; assay: as §1; settings: 40 µM
SMILES,IC50 (SU-DHL-6),IC50 [2],other results
CC(COC(F)F)N1CCN(CC#Cc2cccc3nc([C@@H]4CCCN4c4ncnc(N)c4C#N)n(-c4ccccc4)c(=O)c23)CC1 (some centres not stated),2000 nM,188 nM,
N#Cc1c(N)ncnc1N1CCC[C@H]1c1nc2cccc(C#CCN3C[C@@H]4C[C@H]3CN4)c2c(=O)n1-c1ccccc1,1260 nM,135 nM,
CC[C@H](Nc1ncnc(N)c1C#N)c1nc2cccc(C#CCCCC(=O)N3CCCC3)c2c(=O)n1-c1ccccc1,1900 nM,112 nM,
N#Cc1c(N)ncnc1N1CCC[C@H]1c1nc2cccc(C#Cc3cccs3)c2c(=O)n1-c1ccccc1,1680 nM,41.5 nM,
CC(C)(F)CN1CCN(CC#Cc2cccc3nc([C@@H]4CCCN4c4ncnc(N)c4C#N)n(-c4ccccc4)c(=O)c23)CC1,2820 nM,170 nM,
N#Cc1c(N)ncnc1N1CC[C@H]1c1nc2cccc(C#CCCCC(=O)N3CCCC3)c2c(=O)n1-c1ccccc1,7840 nM,440 nM,
CC[C@H](Nc1ncnc(N)c1C#N)c1nc2cccc(C#CCCCC(=O)N3CCOCC3)c2c(=O)n1-c1ccccc1,1430 nM,96.8 nM,
N#Cc1c(N)ncnc1N1CCC[C@H]1c1nc2cccc(C#Cc3ccccn3)c2c(=O)n1-c1ccccc1,1900 nM,> 300 nM,
CC[C@H](Nc1ncnc2[nH]cnc12)c1nc2cccc(C#CCCCC(=O)N3CCOCC3)c2c(=O)n1-c1ccccc1,1180 nM,110 nM,
N#Cc1c(N)ncnc1N1CCC[C@H]1c1nc2cccc(C#Cc3cccc(F)c3)c2c(=O)n1-c1ccccc1,3860 nM,> 300 nM,
N#Cc1c(N)ncnc1N1CCC[C@H]1c1nc2cccc(C#Cc3cccnc3)c2c(=O)n1-c1ccccc1,1730 nM,> 300 nM,
N#Cc1c(N)ncnc1N1CC[C@H]1c1nc2cccc(C#CCCCC(=O)N3CCOCC3)c2c(=O)n1-c1ccccc1,7320 nM,620 nM,
CC(F)CN1CCN(CC#Cc2cccc3nc([C@@H]4CCCN4c4ncnc(N)c4C#N)n(-c4ccccc4)c(=O)c23)CC1 (some centres not stated),1410 nM,80.2 nM,
CCOC(=O)c1cnc(C#Cc2cccc3nc([C@@H]4CCCN4c4ncnc(N)c4C#N)n(-c4ccccc4)c(=O)c23)s1,> 10000 nM,> 300 nM,
Nc1nc(N)nc(N2CCC[C@H]2c2nc3cccc(C#CCCCC(=O)N4CCOCC4)c3c(=O)n2-c2ccccc2)n1,> 10000 nM,> 300 nM,

# The next lines start with results.
IC50 (SU-DHL-6),IC50 [2],SMILES,other results
118 nM,,CC[C@H](Nc1ncnc2[nH]cnc12)c1nc2cccc(F)c2c(=O)n1-c1ccccc1 [IDELALISIB],IC50 (KARPAS-422): 8100 nM; IC50 [1]: > 10000 nM; IC50 (HT): > 10000 nM; IC50 (Pfeiffer): 6800 nM; IC50 (NAMALVA): > 10000 nM; IC50 (SU-DHL-1): > 10000 nM; IC50 (SU-DHL10): > 10000 nM; IC50 (MOLT-4): > 10000 nM
26.8 nM,12.2 nM,CC[C@H](Nc1nc(N)nc(N)c1C#N)c1nc2cccc(C#CCCCO)c2c(=O)n1-c1ccccc1,
178 nM,11.8 nM,Cc1nc(N)nc(N2CCC[C@H]2c2nc3cccc(C#CCCCC(=O)N4CCOCC4)c3c(=O)n2-c2ccccc2)c1C#N,
27.6 nM,13.8 nM,N#Cc1c(N)ncnc1N1CCC[C@H]1c1nc2cccc(C#CCCCC(=O)N3CCOCC3)c2c(=O)n1-c1ccccc1,IC50 [3]: 291 nM; IC50 [4]: 3110 nM; IC50 [5]: 1650 nM; IC50 (KARPAS-422): 11600 nM; IC50 [1]: > 10000 nM; IC50 (HT): > 10000 nM; IC50 (Pfeiffer): 7200 nM; IC50 (NAMALVA): 6000 nM; IC50 (SU-DHL-1): > 10000 nM; IC50 (SUD4): 3900 nM; IC50 (SU-DHL10): 2400 nM; IC50 (MOLT-4): > 10000 nM; IC50 ([6]; read-out: IC50): 31700 nM; inhibition at 40 µM (hERG (KCNH2)): 61.9%
216 nM,97.7 nM,CC(C)(C)N1CCN(C(=O)C#Cc2cccc3nc([C@@H]4CCCN4c4ncnc(N)c4C#N)n(-c4ccccc4)c(=O)c23)CC1,
1150 nM,> 300 nM,CC(C)N1CCN(Cc2cnc(C#Cc3cccc4nc([C@@H]5CCCN5c5ncnc(N)c5C#N)n(-c5ccccc5)c(=O)c34)s2)CC1,
724 nM,141 nM,N#Cc1c(N)ncnc1N1CCC[C@H]1c1nc2cccc(C#CCN3CCC(C4CC(F)(F)C4)CC3)c2c(=O)n1-c1ccccc1,
705 nM,107 nM,N#Cc1c(N)ncnc1N1CCC[C@H]1c1nc2cccc(C#CCN3CCN(CC4CC4)CC3)c2c(=O)n1-c1ccccc1,
526 nM,78.1 nM,N#Cc1c(N)ncnc1N1CCC[C@H]1c1nc2cccc(C#CCN3CCC(C4CC(F)C4)CC3)c2c(=O)n1-c1ccccc1 (some centres not stated),
99 nM,11.5 nM,N#Cc1c(N)ncnc1N1CCC[C@H]1c1nc2cccc(C#CCCCC(=O)N3CCCC3)c2c(=O)n1-c1ccccc1,
372 nM,60.2 nM,C=CC(O)C(C)(C)N1CCN(CC#Cc2cccc3nc([C@@H]4CCCN4c4ncnc(N)c4C#N)n(-c4ccccc4)c(=O)c23)CC1 (some centres not stated),
339 nM,67.1 nM,CC(C)(CO)N1CCN(CC#Cc2cccc3nc([C@@H]4CCCN4c4ncnc(N)c4C#N)n(-c4ccccc4)c(=O)c23)CC1,
37.2 nM,6.73 nM,CC[C@H](Nc1nc(N)nc(N)c1C#N)c1nc2cccc(C#CCCCC(=O)N3CCCC3)c2c(=O)n1-c1ccccc1,IC50 [3]: 125 nM; IC50 [4]: 624 nM; IC50 [5]: 530 nM; IC50 (KARPAS-422): 2100 nM; IC50 [1]: 6800 nM; IC50 (HT): 7900 nM; IC50 (Pfeiffer): 2200 nM; IC50 (NAMALVA): 6200 nM; IC50 (SU-DHL-1): 4900 nM; IC50 (SUD4): 1700 nM; IC50 (SU-DHL10): 1800 nM; IC50 (MOLT-4): 6700 nM; IC50 ([6]; read-out: IC50): > 40000 nM; inhibition at 40 µM (hERG (KCNH2)): 39.3%
862 nM,19.6 nM,Cc1nc(N)nc(N2CC[C@H]2c2nc3cccc(C#CCCCC(=O)N4CCCC4)c3c(=O)n2-c2ccccc2)c1C#N,
282 nM,43 nM,CC(C)(C)N1CCN(CC#Cc2cccc3nc([C@@H]4CCCN4c4ncnc(N)c4C#N)n(-c4ccccc4)c(=O)c23)CC1,
1160 nM,107 nM,N#Cc1c(N)ncnc1N1CCC[C@H]1c1nc2cccc(C#CCN3CCOCC3)c2c(=O)n1-c1ccccc1,
58.9 nM,7.1 nM,Cc1nc(N)nc(N2CCC[C@H]2c2nc3cccc(C#CCCCC(=O)N4CCCC4)c3c(=O)n2-c2ccccc2)c1C#N,IC50 [3]: 132 nM; IC50 [4]: 1480 nM; IC50 [5]: 2020 nM; IC50 (KARPAS-422): 4300 nM; IC50 [1]: > 10000 nM; IC50 (HT): > 10000 nM; IC50 (Pfeiffer): 4400 nM; IC50 (NAMALVA): 5900 nM; IC50 (SU-DHL-1): > 10000 nM; IC50 (SUD4): 4000 nM; IC50 (SU-DHL10): 4500 nM; IC50 (MOLT-4): 6700 nM; IC50 [6]: Nd(Insoluble); inhibition (INH) [7]: Nd(Insoluble)
640 nM,16.8 nM,Cc1nc(N)nc(N2CC[C@H]2c2nc3cccc(C#CCCCC(=O)N4CCOCC4)c3c(=O)n2-c2ccccc2)c1C#N,
1120 nM,70 nM,N#Cc1c(N)ncnc1N1CCC[C@H]1c1nc2cccc(C#CC(=O)N3CCOCC3)c2c(=O)n1-c1ccccc1,
